In patent EP2929883A1, “Pyrazole derivatives as dihydroorotate dehydrogenase (DHODH) inhibitors” (INSTITUT PASTEUR, priority 2014, dated 2015):
In brackets after ≈: the same amount, converted by molar mass.

What was measured:
measles virus = experiment: microbe, parasite or virus in culture; conditions: Measles morbillivirus; for IC50: HEK-293T, read-out: IC50 on the measles virus
recombinant human DHODH = molecular target: T1, recombinant human DHODH (Homo sapiens, UniProt Q02127); experiment: recombinant DHODH enzymatic assay (DCIP reduction); assay type: biochemical; conditions: 25°C, DCIP reduction at 600 nm
T1 construct: N-terminally truncated (first 29 amino acids) human DHODH; made in house; host or cells: E. coli BL21(DE3)/pDIA17
Protocol: Enzymatic assay DHODH activity was determined at 25°C following the reduction of DCIP at 600 nm (ε = 18,800 M^-1 cm^-1) on a spectrophotometer. […] The reaction medium used for this contained 50 mM Tris-HCl pH 8.0, 0.1% Triton X-100, 0.1 mM L-DHO, 0.025 mM CoQ1 and 0.06 mM DCIP. The reaction was started by addition of the enzyme.

Jurkat cells = experiment: inhibition of the proliferation of Jurkat cells (CellTiter-Glo); assay type: cell-based; conditions: Homo sapiens, 72 h, read-out: IC50, Jurkat cells proliferation
Protocol: As a control, cells were treated with DMSO alone. At t=0 and after 72 hours of culture, the number of living cells was determined using the CellTiter-Glo reagent. The inhibition of cellular proliferation is expressed as a percentage relative to DMSO-treated control wells. Presented results correspond to the mean ± SD of two independent experiments.
Jurkat cells were cultured in at 5.10+4 cells per well in flat-bottom 96-well culture dishes. […] Number of living cells was determined by quantification of adenosine triphosphate (ATP) in culture wells using the CellTiter-Glo Assay (Promega) following manufacturer's recommendations.

T1 sequence (Q02127 29-395): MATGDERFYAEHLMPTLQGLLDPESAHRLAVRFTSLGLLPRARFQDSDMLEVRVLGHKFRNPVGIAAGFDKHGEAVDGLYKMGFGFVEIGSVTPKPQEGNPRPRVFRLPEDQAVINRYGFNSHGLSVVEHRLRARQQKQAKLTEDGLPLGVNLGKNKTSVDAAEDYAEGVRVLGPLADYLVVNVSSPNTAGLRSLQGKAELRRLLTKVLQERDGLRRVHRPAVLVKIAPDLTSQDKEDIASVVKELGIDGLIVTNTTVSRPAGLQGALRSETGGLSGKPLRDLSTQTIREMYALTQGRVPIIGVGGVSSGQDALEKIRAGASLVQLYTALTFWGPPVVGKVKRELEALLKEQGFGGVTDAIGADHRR

Row | Structure (SMILES) | MIC50 (measles virus; 24 h) [µM] | further results
1 | Cc1c(Cc2ccccc2)c(OC(C)C)nn1-c1ccc(C2CC2)cn1 [example 20, 2-(4-benzyl-3-isopropoxy-5-methyl-1H-pyrazol-1-yl)-5-cyclopropylpyridine] | 0.0005 to 0.05 (≈ 0.000174 to 0.0174 µg/mL) | IC50 (measles virus): 46 nM; IC50 (recombinant human DHODH): 130 ± 5 nM
2 | c1ccc(-c2ccn(-c3ncc(C4CC4)cn3)n2)cc1 [example 122, 5-cyclopropyl-2-(3-phenyl-1H-pyrazol-1-yl)pyrimidine] | 0.5 to 5 (≈ 0.131 to 1.31 µg/mL) | IC50 (measles virus): 3800 nM; IC50 (recombinant human DHODH): 22800 ± 2800 nM
3 | Cc1c(C(O)c2ccccc2)c(OC(C)C)nn1-c1ncc(C2CC2)cn1 (stereo not drawn) [example 176, (1-(5-cyclopropylpyrimidin-2-yl)-3-isopropoxy-5-methyl-1H-pyrazol-4-yl)(phenyl)methanol] | 0.0005 to 0.05 (≈ 0.000182 to 0.0182 µg/mL) | IC50 (measles virus): 1.4 nM; IC50 (recombinant human DHODH): 16 ± 3 nM
4 | Cc1c(Cc2ccccc2F)c(OC(C)C)nn1-c1ncc(C2CC2)cn1 [example 10, 5-cyclopropyl-2-(4-(2-fluorobenzyl)-3-isopropoxy-5-methyl-1H-pyrazol-1-yl)pyrimidine] | 0.0005 to 0.05 (≈ 0.000183 to 0.0183 µg/mL) | IC50 (measles virus): 1.1 nM; IC50 (recombinant human DHODH): 13 ± 2 nM
5 | CCc1cnc(-n2nc(OC(C)C)c(Oc3c(F)cccc3F)c2C)nc1 [example 8, 2-(4-(2,6-difluorophenoxy)-3-isopropoxy-5-methyl-1H-pyrazol-1-yl)-5-ethylpyrimidine] | 0.0005 to 0.05 (≈ 0.000187 to 0.0187 µg/mL) | IC50 (measles virus): 0.66 nM; IC50 (recombinant human DHODH): 13 ± 1 nM
6 | C/C(O)=C(\C#N)C(=O)Nc1ccc(C(F)(F)F)cc1 [Teriflunomide, reference compound] |  | IC50 (Jurkat cells): ~60000 nM; MIC50 (measles virus): 50 µM (≈ 13.5 µg/mL)
7 | CCOc1nn(-c2ncc(CC)cn2)c(C)c1Oc1ccccc1Br [example 81, 2-(4-(2-bromophenoxy)-3-ethoxy-5-methyl-1H-pyrazol-1-yl)-5-ethylpyrimidine] | 0.05 to 0.5 (≈ 0.0202 to 0.202 µg/mL) | IC50 (measles virus): 124 nM; IC50 (recombinant human DHODH): 1150 ± 170 nM
8 | CC(C)Oc1nn(-c2ncc(C3CC3)cn2)cc1Oc1ccccc1F [example 67, 5-cyclopropyl-2-(4-(2-fluorophenoxy)-3-isopropoxy-1H-pyrazol-1-yl)pyrimidine] | 0.0005 to 0.05 (≈ 0.000177 to 0.0177 µg/mL) | IC50 (measles virus): 15 nM; IC50 (recombinant human DHODH): 48 ± 7 nM
9 | Cc1c(Oc2c(F)cccc2F)c(OC(C)C)nn1-c1ccccn1 [example 4, 2-(4-(2,6-difluorophenoxy)-3-isopropoxy-5-methyl-1H-pyrazol-1-yl)pyridine] | > 5 | 
10 | CCOc1nn(-c2ccc(C3CC3)cn2)c(C)c1C(O)c1ccccc1 (stereo not drawn) [example 177, (1-(5-cyclopropylpyridin-2-yl)-3-ethoxy-5-methyl-1H-pyrazol-4-yl)(phenyl)methanol] | 0.0005 to 0.05 (≈ 0.000175 to 0.0175 µg/mL) | 
11 | CCOc1nn(-c2ccc(C(C)C)cn2)c(C)c1Cc1ccccc1 [example 170, 2-(4-benzyl-3-ethoxy-5-methyl-1H-pyrazol-1-yl)-5-isopropylpyridine] | 0.5 to 5 (≈ 0.168 to 1.68 µg/mL) | 
12 | COc1cc(-c2ccc(C(C)(C)C)cc2)n(-c2ccccn2)n1 [example 146, 2-(5-(4-tert-butylphenyl)-3-methoxy-1H-pyrazol-1-yl)pyridine] | > 5 | 
13 | COc1cc(C2CC2)cnc1-n1cc(Oc2ccccc2)c(OC(C)C)n1 [example 184, 5-cyclopropyl-2-(3-isopropoxy-4-phenoxy-1H-pyrazol-1-yl)-3-methoxypyridine] | 0.0005 to 0.05 (≈ 0.000183 to 0.0183 µg/mL) | 
14 | Cc1c(Oc2c(F)cccc2F)c(OC(C)C)nn1-c1ncccn1 [example 74, 2-(4-(2,6-difluorophenoxy)-3-isopropoxy-5-methyl-1H-pyrazol-1-yl)pyrimidine] | 0.5 to 5 (≈ 0.173 to 1.73 µg/mL) | 
15 | CCc1ccc(-n2nc(OC(C)C)c(Oc3c(F)cccc3F)c2C)nc1 [example 9B, 2-(4-(2,6-difluorophenoxy)-3-isopropoxy-5-methyl-1H-pyrazol-1-yl)-5-ethylpyridine] | 0.05 to 0.5 (≈ 0.0187 to 0.187 µg/mL) | 
16 | CCOc1nn(-c2ccc(C3CC3)cn2)c(C)c1Oc1ccccc1Cl [example 63, 2-(4-(2-chlorophenoxy)-3-ethoxy-5-methyl-1H-pyrazol-1-yl)-5-cyclopropylpyridine] | 0.0005 to 0.05 (≈ 0.000185 to 0.0185 µg/mL) | 
17 | CCOc1cc(-c2ccc(Cl)cc2)n(-c2ccccn2)n1 [example 147, 2-(5-(4-chlorophenyl)-3-ethoxy-1H-pyrazol-1-yl)pyridine] | > 5 | 
18 | CCOc1nn(-c2ncc(CC)c(C)n2)c(C)c1Cc1ccccc1 [example 175, 2-(4-benzyl-3-ethoxy-5-methyl-1H-pyrazol-1-yl)-5-ethyl-4-methylpyrimidine] | 0.0005 to 0.05 (≈ 0.000168 to 0.0168 µg/mL) | 
19 | CCOc1nn(-c2ccc(OC)cc2)cc1Cc1ccccc1 [example 164, 4-benzyl-3-ethoxy-1-(4-methoxyphenyl)-1H-pyrazole] | > 5 | 
20 | CCOc1nn(-c2ccc(C3CC3)cn2)c(C)c1Oc1ccc(C(F)(F)F)cc1 [example 94, 5-cyclopropyl-2-(3-ethoxy-5-methyl-4-(4-(trifluoromethyl)phenoxy)-1H-pyrazol-1-yl)pyridine] | 0.5 to 5 (≈ 0.202 to 2.02 µg/mL) | 
21 | CCOc1nn(-c2ncc(CC)cn2)c(C)c1C(=O)c1ccccc1 [example 150, (3-ethoxy-1-(5-ethylpyrimidin-2-yl)-5-methyl-1H-pyrazol-4-yl)(phenyl)methanone] | 0.5 to 5 (≈ 0.168 to 1.68 µg/mL) | 
22 | Cc1c(Oc2c(F)cccc2F)c(OC(C)C)nn1-c1ccc(Br)cn1 [example 59, 5-bromo-2-(4-(2,6-difluorophenoxy)-3-isopropoxy-5-methyl-1H-pyrazol-1-yl)pyridine] | 0.05 to 0.5 (≈ 0.0212 to 0.212 µg/mL) | 
23 | Cc1c(Oc2ccccc2F)c(OC(C)C)nn1-c1ccc(C2CC2)cn1 [example 69, 5-cyclopropyl-2-(4-(2-fluorophenoxy)-3-isopropoxy-5-methyl-1H-pyrazol-1-yl)pyridine] | 0.0005 to 0.05 (≈ 0.000184 to 0.0184 µg/mL) | 
24 | CCOc1nn(-c2ccc(C(C)=O)cn2)c(C)c1Cc1ccccc1 [example 88, 1-(6-(4-benzyl-3-ethoxy-5-methyl-1H-pyrazol-1-yl)pyridin-3-yl)ethanone] | > 5 | 
